# Source: PubChem BioAssay AID1259407 (Chemical Carcinogenesis Research Information System (CCRIS), 2018)
# Calls of active or inactive are those of the source. How the calls were made is not given here.
# Tested on: CCRIS mutagenicity, Ames/micronucleus/aberration tests
# Test: CCRIS mutagenicity studies
# [1] = Test System: AMES SALMONELLA TYPHIMURIUM, Strain/Indicator: TA98, Metabolic Activation: HAMSTER, LIVER, S-9, AROCLOR 1254, Method: STANDARD PLATE
# [2] = Test System: AMES SALMONELLA TYPHIMURIUM, Strain/Indicator: TA98, Metabolic Activation: NONE, Method: STANDARD PLATE
# [3] = Test System: AMES SALMONELLA TYPHIMURIUM, Strain/Indicator: TA98, Metabolic Activation: RAT, LIVER, S-9, AROCLOR 1254, Method: STANDARD PLATE
# [4] = Test System: AMES SALMONELLA TYPHIMURIUM, Strain/Indicator: TA100, Metabolic Activation: HAMSTER, LIVER, S-9, AROCLOR 1254, Method: STANDARD PLATE
# [5] = Test System: AMES SALMONELLA TYPHIMURIUM, Strain/Indicator: TA100, Metabolic Activation: NONE, Method: STANDARD PLATE
# [6] = Test System: AMES SALMONELLA TYPHIMURIUM, Strain/Indicator: TA100, Metabolic Activation: RAT, LIVER, S-9, AROCLOR 1254, Method: STANDARD PLATE
# [7] = Test System: AMES SALMONELLA TYPHIMURIUM, Strain/Indicator: TA1535, Metabolic Activation: HAMSTER, LIVER, S-9, AROCLOR 1254, Method: STANDARD PLATE
# [8] = Test System: AMES SALMONELLA TYPHIMURIUM, Strain/Indicator: TA1535, Metabolic Activation: NONE, Method: STANDARD PLATE
# [9] = Test System: AMES SALMONELLA TYPHIMURIUM, Strain/Indicator: TA1535, Metabolic Activation: RAT, LIVER, S-9, AROCLOR 1254, Method: STANDARD PLATE
# [10] = Test System: AMES SALMONELLA TYPHIMURIUM, Strain/Indicator: TA1537, Metabolic Activation: HAMSTER, LIVER, S-9, AROCLOR 1254, Method: STANDARD PLATE
# [11] = Test System: AMES SALMONELLA TYPHIMURIUM, Strain/Indicator: TA1537, Metabolic Activation: NONE, Method: STANDARD PLATE
# [12] = Test System: AMES SALMONELLA TYPHIMURIUM, Strain/Indicator: TA1537, Metabolic Activation: RAT, LIVER, S-9, AROCLOR 1254, Method: STANDARD PLATE
# [13] = Test System: AMES SALMONELLA TYPHIMURIUM, Strain/Indicator: TA1538, Metabolic Activation: HAMSTER, LIVER, S-9, AROCLOR 1254, Method: STANDARD PLATE
# [14] = Test System: AMES SALMONELLA TYPHIMURIUM, Strain/Indicator: TA1538, Metabolic Activation: NONE, Method: STANDARD PLATE
# [15] = Test System: AMES SALMONELLA TYPHIMURIUM, Strain/Indicator: TA1538, Metabolic Activation: RAT, LIVER, S-9, AROCLOR 1254, Method: STANDARD PLATE
# [16] = Test System: MOUSE LYMPHOMA, Strain/Indicator: L5178Y (TK+/TK-), Metabolic Activation: NONE, Method: SUSPENSION/PLATE
# [17] = Test System: MOUSE LYMPHOMA, Strain/Indicator: L5178Y (TK+/TK-), Metabolic Activation: RAT, LIVER, S-9, AROCLOR 1254, Method: SUSPENSION/PLATE
# [18] = Test System: AMES SALMONELLA TYPHIMURIUM, Strain/Indicator: TA97, Metabolic Activation: NONE, Method: PREINCUBATION
# [19] = Test System: AMES SALMONELLA TYPHIMURIUM, Strain/Indicator: TA102, Metabolic Activation: NONE, Method: PREINCUBATION
Compound,mutagenic call [1],mutagenic call [2],mutagenic call [3],mutagenic call [4],mutagenic call [5],mutagenic call [6],mutagenic call [7],mutagenic call [8],mutagenic call [9],mutagenic call [10],mutagenic call [11],mutagenic call [12],mutagenic call [13],mutagenic call [14],mutagenic call [15],mutagenic call [16],mutagenic call [17],mutagenic call [18],mutagenic call [19],further results
CCOCOCC,inactive; negative,inactive; negative,inactive; negative,inactive; negative,inactive; negative,inactive; negative,inactive; negative,inactive; negative,inactive; negative,inactive; negative,inactive; negative,inactive; negative,inactive; negative,inactive; negative,inactive; negative,inactive; negative. reevaluation of results: negative,active; positive. reevaluation of results: positive,–,–,–
Cn1c(N)nc2cc(Cl)ccc21,–,–,–,–,–,–,–,–,–,–,–,–,–,–,–,–,–,–,–,"mutagenic call (Test System: AMES SALMONELLA TYPHIMURIUM, Strain/Indicator: TA98, Metabolic Activation: RAT, LIVER, S-9, AROCLOR 1254, Method: PREINCUBATION): active; positive; mutagenic call (Test System: AMES SALMONELLA TYPHIMURIUM, Strain/Indicator: TA100, Metabolic Activation: RAT, LIVER, S-9, AROCLOR 1254, Method: PREINCUBATION): active; positive"
COP(=O)(OC)Oc1ccc([N+](=O)[O-])c(C)c1,–,inactive; negative,–,–,inactive; negative,–,–,–,–,–,–,–,–,–,–,–,–,–,–,"mutagenic call (Test System: AMES SALMONELLA TYPHIMURIUM, Strain/Indicator: TA98, Metabolic Activation: RAT, LIVER, S-9, Method: STANDARD PLATE): active; positive; mutagenic call (Test System: AMES SALMONELLA TYPHIMURIUM, Strain/Indicator: TA100, Metabolic Activation: RAT, LIVER, S-9, Method: STANDARD PLATE): inactive; negative"
CC(C)(C#N)C(C)(C)C#N,inactive; negative,inactive; negative,inactive; negative,inactive; negative,inactive; negative,inactive; negative,inactive; negative,inactive; negative,inactive; negative,–,inactive; negative,inactive; negative,inactive; negative,inactive; negative,inactive; negative,inactive; negative. reevaluation of results: negative,inactive; negative. reevaluation of results: negative,inactive; negative,inactive; negative,"mutagenic call (Test System: AMES SALMONELLA TYPHIMURIUM, Strain/Indicator: TA97, Metabolic Activation: HAMSTER, LIVER, S-9, AROCLOR 1254 (10 OR 30%), Method: PREINCUBATION): inactive; negative; mutagenic call (Test System: AMES SALMONELLA TYPHIMURIUM, Strain/Indicator: TA97, Metabolic Activation: RAT, LIVER, S-9, AROCLOR 1254 (10 OR 30%), Method: PREINCUBATION): inactive; negative; mutagenic call (Test System: AMES SALMONELLA TYPHIMURIUM, Strain/Indicator: TA97, Method: PREINCUBATION): inactive; negative; mutagenic call (Test System: AMES SALMONELLA TYPHIMURIUM, Strain/Indicator: TA98, Metabolic Activation: HAMSTER, LIVER, S-9, AROCLOR 1254 (10 OR 30%), Method: PREINCUBATION): inactive; negative; mutagenic call (Test System: AMES SALMONELLA TYPHIMURIUM, Strain/Indicator: TA98, Metabolic Activation: NONE, Method: PREINCUBATION): inactive; negative; mutagenic call (Test System: AMES SALMONELLA TYPHIMURIUM, Strain/Indicator: TA98, Metabolic Activation: RAT, LIVER, S-9, AROCLOR 1254 (10 OR 30%), Method: PREINCUBATION): inactive; negative; mutagenic call (Test System: AMES SALMONELLA TYPHIMURIUM, Strain/Indicator: TA98, Method: PREINCUBATION): inactive; negative; mutagenic call (Test System: AMES SALMONELLA TYPHIMURIUM, Strain/Indicator: TA100, Metabolic Activation: HAMSTER, LIVER, S-9, AROCLOR 1254 (10 OR 30%), Method: PREINCUBATION): inactive; negative; mutagenic call (Test System: AMES SALMONELLA TYPHIMURIUM, Strain/Indicator: TA100, Metabolic Activation: NONE, Method: PREINCUBATION): inactive; negative; mutagenic call (Test System: AMES SALMONELLA TYPHIMURIUM, Strain/Indicator: TA100, Metabolic Activation: RAT, LIVER, S-9, AROCLOR 1254 (10 OR 30%), Method: PREINCUBATION): inactive; negative; mutagenic call (Test System: AMES SALMONELLA TYPHIMURIUM, Strain/Indicator: TA100, Method: PREINCUBATION): inactive; negative; mutagenic call (Test System: AMES SALMONELLA TYPHIMURIUM, Strain/Indicator: TA102, Method: PREINCUBATION): inactive; negative; mutagenic call (Test System: AMES SALMONELLA TYPHIMURIUM, Strain/Indicator: TA1535, Metabolic Activation: HAMSTER, LIVER, S-9, AROCLOR 1254 (10 OR 30%), Method: PREINCUBATION): inactive; negative; mutagenic call (Test System: AMES SALMONELLA TYPHIMURIUM, Strain/Indicator: TA1535, Metabolic Activation: NONE, Method: PREINCUBATION): inactive; negative; mutagenic call (Test System: AMES SALMONELLA TYPHIMURIUM, Strain/Indicator: TA1535, Metabolic Activation: RAT, LIVER, S-9, AROCLOR 1254 (10 OR 30%), Method: PREINCUBATION): inactive; negative"
O=C(O)O,inactive; negative,inactive; negative,inactive; negative,inactive; negative,inactive; negative,inactive; negative,inactive; negative,inactive; negative,inactive; negative,inactive; negative,inactive; negative,inactive; negative,inactive; negative,inactive; negative,inactive; negative,–,–,inactive; negative,inactive; negative,"mutagenic call (Test System: AMES SALMONELLA TYPHIMURIUM, Strain/Indicator: TA97, Metabolic Activation: RAT, LIVER, S-9, AROCLOR 1254, Method: PREINCUBATION): inactive; negative; mutagenic call (Test System: AMES SALMONELLA TYPHIMURIUM, Strain/Indicator: TA102, Metabolic Activation: RAT, LIVER, S-9, AROCLOR 1254, Method: PREINCUBATION): inactive; negative; mutagenic call (Test System: CHINESE HAMSTER V-79, Strain/Indicator: V-79/6-THIOGUANINE, Metabolic Activation: NONE): active; positive; mutagenic call (Test System: CHINESE HAMSTER V-79, Strain/Indicator: V-79/6-THIOGUANINE, Metabolic Activation: S-9): inactive; negative; mutagenic call (Test System: Mouse lymphoma, Strain/Indicator: L5178Y (tk+/tk-), Metabolic Activation: None, Method: Suspension/plate): inactive; negative; mutagenic call (Test System: Mouse lymphoma, Strain/Indicator: L5178Y (tk+/tk-), Metabolic Activation: Rat, Liver, S-9, Aroclor 1254, Method: Suspension/plate): inactive; negative"
